US20230338344A1, “AMPK Activators and Methods of Use Thereof” (Bioverativ Therapeutics Inc., priority 2020, published 2023)
Values belong to the compound of their own block, whether it stands above or below them.

How the values were obtained:
[1] = test system: human CD34+ cells; experiment: Fetal hemoglobin (HbF) induction in mobilized CD34+ HSPC from healthy individuals during erythroid differentiation, F-cells by flow cytometry; format: cell-based; conditions: healthy donors; for frequency of F-cells (HbF+): compared to vehicle (DMSO); for fetal hemoglobin induction, F-cell (HbF+) frequency in enucleated GlyA+ cells: vs DMSO or single agents
Method: Mobilized CD34+ Human Stem/Progenitor Cells (HSPC) from healthy individuals were cultured for 3 days in a maintenance media consisting of X-VIVO 10 (VWR), 100 U/mL penicillin-streptomycin (ThermoFisher), 2 mM L-glutamine (Fisher Scientific), 100 ng/mL Recombinant Human Stem Cell Factor (SCF), 100 ng/mL Recombinant Human Thrombopoietin (TPO) and 100 ng/mL Recombinant Human Flt-3 Ligand (Flt-3L) (all three from ThermoFisher). Cells were differentiated into erythroid cells using a three-step differentiation protocol developed by the Luc Douay group (Giarratana et al. 2005). […] On day 7, cells were transferred to step 2 media, a step 1 media without hydrocortisone and IL-3, and cultured for 3-4 days. Then cells were cultured for 8-9 days in step 3 media, a step 2 media without SCF. […] To determine the percentage of HbF-positive cells (F-cells), differentiate cells were fixed and permeabilized using a fixation kit (ThermoFisher). Cells were stained with PE-Cy7-conjugated anti-CD235 or PE-conjugated anti-CD71 antibodies. HbF levels were detected using Allophycocyanin (APC)-conjugated anti-HbF antibody (ThermoFisher). The acquisition of stained cells was performed on BD FACSCanto™ and the analysis was run using FlowJo™ Software.
Human CD34+ cells were exposed to β1-selective AMPK activators and pan-AMPK activators during the 21-day differentiation process. To assess fetal hemoglobin expression level, cells were fixed and stained with CD235a, CD71 and fetal hemoglobin antibodies for flowcytometry analysis.
After 14 days of differentiation, cells were fixed and stained with CD235a, CD71 and fetal hemoglobin antibodies for flowcytometry analysis.

[2] = test system: AMPK; experiment: AMPK target engagement: Thr172 phosphorylation of alpha-AMPK (Alpha SureFire Ultra Multiplex) in undifferentiated HUDEP-2 cells; format: cell-based, human
Method: Phosphorylation of AMPK at threonine 172 (Thr172) on the α-subunit of AMPK was assessed by […] using the Alpha SureFire Ultra Multiplex p-AMPKα1/2 (Thr172)+Total AMPKα1/2 Assay Kit from Perkin Elmer as a target engagement assay. The assay kit contains antibodies, coupled with fluorophore Europium, which recognize the phospho-Thr172 epitope and a distal epitope on α-AMPK of human or mouse AMPK. The kit also contains antibodies coupled with the fluorophore Terbium to measure the total levels of AMPK. […] As to the human HUDEP-2 cells line, cells were undifferentiated during exposure to AMPK activators. According to the time course, cells were collected and lysed using RIPA buffer mixed with a phosphatase and protease inhibitors cocktail (Thermofisher). Phospho-AMPK signal was divided by total AMPK signal and the ratio was normalized to the total protein concentration. Samples protein concentrations were measured with the Pierce BSA Protein Assay (ThermoFisher).

[3] = test system: human CD34+ cells; experiment: Maturation of CD34+ cells to erythrocytes: enucleation (NucRed) and markers CD71/CD235a by flow cytometry; format: cell-based
Method: During human CD34+ cells differentiation, maturation is measured by quantification of enucleation and expression of markers CD71 and CD235a, and assessed by flowcytometry. […] As well, cells were stained for markers CD235a and CD71. The acquisition was performed on BD FACSCanto™ and the analysis was done using FlowJo™ Software.

[4] = 7-day toxicological study in rats, hematological erythroid parameters; format: in vivo, Crl:CD (Sprague Dawley) rats; conditions: rats, 100, 300 and 1000 mg/kg/day PO QD 7 days, blood on day 8
Method: On day 8, blood samples were drawn and complete blood counts (CBC) were tested on a hematology analyzer to determine red blood cell counts (10^6 RBC/μL), hemoglobin (Hb, g/dL) and hematocrit (HCT, %).

[5] = test system: Nrf2-oxidative stress response pathway; experiment: Transcriptomic and proteomic analysis of human CD34+ cells differentiated 14 days (correlation study, IPA); format: cell-based; conditions: 3 healthy donors
Method: At day 14, RNA was extracted with Trizol reagent (Invitrogen). DNase treatment, RNA integrity and quantification, libraries generation and sequencing (Illumina HiSeq platforms HiSeq 2500) were realized according to Genewiz protocol (South Plainfield, NJ). Concerning the proteomic analysis, proteins were extracted from the same CD34+ cells used for the transcriptomic analysis. Samples preparation, proteins digestion, peptides TMT labeling and proteomic analysis were performed according to IQ Proteomics (Cambridge, MA). Bioinformatics analysis have been conducted to determine the differential expression of mRNA and proteins, and a correlation study using the differential expression from the transcriptomic analysis and the differential expression from the proteomics analysis has been run. […] SQSTM1 is known to activate Nrf2 by inhibiting Keapl, and Nrf2 pathway is known to induce HO-1 for antioxidative function in cells.

[6] = test system: HBG (human gamma-globin) mRNA; experiment: gamma-globin (HBG) mRNA in Townes mouse bone marrow by qRT-PCR; format: in vivo; conditions: HbAA mice bone marrow, 2 days of exposure, 100 mg/kg
Method: Total RNA from Townes mouse bone marrow cells was prepared using a RNeasy Mini kit (Qiagen). A quantity of 1 μg of mRNA was reverse transcribed using an iVILO Retro Transcription kit (ThermoFisher). 50 ng of the resulting cDNA was amplified by Taqman amplification in a QuantStudio thermocycler (Life Technologies) using HBG (human 7-globin primers) as gene of interest, and GAPDH (mouse gapdh primers) as a housekeeping gene (Life Technologies). The delta Ct was calculated and difference in mRNA expression was expressed as a fold-change to vehicle condition.

[7] = test system: fetal hemoglobin protein; experiment: Human fetal hemoglobin protein in Townes mice bone marrow by flow cytometry, 15-day study; format: in vivo, mouse; conditions: HbSS Townes mice, 100 mg/kg PO QD 15 days, vs vehicle
Source text: These mice express the genes for human HbS (homozygous HbSS), express the physiopathological phenotype of SCD and are called “HbSS-Townes mice”, whereas the control Townes mice express the genes for human HbA without the sickle mutation (homozygous HbAA), are healthy, and are called “HbAA-Townes mice” (Jackson Laboratory). These control HbAA-Townes mice were created by replacing the murine globin genes with human α-globin gene (genotype: Hba hα/hα) and linked human βA− and fetal Aγ-globins (genotype: Hbb hAγβA/hAγβA), whereas HbSS-Townes mice were created by replacing the murine adult α-globin genes with the human α-globin gene (genotype: Hba hα/hα), and the murine adult β-globin genes were replaced with human sickle βS− and fetal Aγ-globin gene fragments linked together (genotype: Hbb hAγβS/hAγβS).

[8] = test system: human CD34+ cells from sickle cell donors; experiment: Fetal hemoglobin induction in CD34+ cells from patients with sickle cell disease, 14-day differentiation; format: cell-based; conditions: 14 days of differentiation, vs DMSO
Source text: To measure the effect of AMPK activators on fetal hemoglobin induction in CD34+ cells from patients with sickle cell disease, circulating CD34+ progenitor cells were isolated from total blood obtained from a sickle cell patients, by performing a positive selection for CD34+ cells with magnetic beads (Miltenyi Biotec). Purified CD34+ cells were differentiated for 14 days. After differentiation, cells were fixed and stained with CD235a, CD71 and fetal hemoglobin antibodies for flowcytometry analysis.

[9] = test system: Reactive Oxidative Species (ROS); experiment: Reactive Oxidative Species (ROS) in bone marrow from Townes SCD mice by flow cytometry; format: in vivo, mouse; conditions: 100 mg/kg PO QD 15 days, vs HbSS mice treated with vehicle
[10] = test system: M1 macrophages; experiment: Macrophage polarization to pro-inflammatory M1 phenotype, markers by flow cytometry; format: cell-based, human; conditions: M-CSF polarized macrophages activated by IFN-γ or LPS for 24 h
Method: M1 macrophages were induced by stimulation with M-CSF (50 ng/mL) for 6 days, then activated by IFN-7 or LPS for 24 h, fixed, stained for M1 polarization markers CD38, CD64, CD86 and CD80 and acquired by flowcytometry.

[11] = biological target: T1, AMPK (Homo sapiens, UniProt Q13131+Q9Y478); experiment: AMPK target engagement: Thr172 phosphorylation of alpha-AMPK (Alpha SureFire Ultra Multiplex) in CD34+ cells at day 11 of differentiation; format: cell-based; conditions: differentiated CD34+ cells
T1 construct: endogenous in cells; host or cells: mobilized human CD34+ HSPC from a healthy donor, day 11 of erythroid differentiation
T1 sequence (Q13131 whole entry): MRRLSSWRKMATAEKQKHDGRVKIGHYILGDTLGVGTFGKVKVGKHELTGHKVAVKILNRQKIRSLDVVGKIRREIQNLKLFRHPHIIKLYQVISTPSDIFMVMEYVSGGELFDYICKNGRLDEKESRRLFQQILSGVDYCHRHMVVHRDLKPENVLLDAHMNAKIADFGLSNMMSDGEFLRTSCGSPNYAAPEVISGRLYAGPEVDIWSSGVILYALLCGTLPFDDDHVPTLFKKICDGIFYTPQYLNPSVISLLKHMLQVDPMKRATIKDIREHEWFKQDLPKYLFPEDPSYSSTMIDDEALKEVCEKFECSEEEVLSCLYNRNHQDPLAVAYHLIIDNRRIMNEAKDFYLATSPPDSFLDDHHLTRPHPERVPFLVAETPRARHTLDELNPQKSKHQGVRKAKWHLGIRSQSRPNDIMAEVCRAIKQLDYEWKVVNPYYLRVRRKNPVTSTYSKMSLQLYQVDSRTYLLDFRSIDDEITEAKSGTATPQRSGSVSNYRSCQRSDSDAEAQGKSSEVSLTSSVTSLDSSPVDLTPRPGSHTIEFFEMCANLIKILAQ
T1 sequence (Q9Y478 2-270): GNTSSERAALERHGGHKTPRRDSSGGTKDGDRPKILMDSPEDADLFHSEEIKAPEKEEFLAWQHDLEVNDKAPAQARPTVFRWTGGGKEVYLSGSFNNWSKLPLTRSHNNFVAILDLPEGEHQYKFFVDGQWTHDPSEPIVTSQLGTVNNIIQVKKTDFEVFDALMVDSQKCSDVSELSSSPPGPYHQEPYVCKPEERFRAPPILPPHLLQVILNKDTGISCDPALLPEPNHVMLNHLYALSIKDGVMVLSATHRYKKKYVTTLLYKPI
T1 sequence (P54619 whole entry partner): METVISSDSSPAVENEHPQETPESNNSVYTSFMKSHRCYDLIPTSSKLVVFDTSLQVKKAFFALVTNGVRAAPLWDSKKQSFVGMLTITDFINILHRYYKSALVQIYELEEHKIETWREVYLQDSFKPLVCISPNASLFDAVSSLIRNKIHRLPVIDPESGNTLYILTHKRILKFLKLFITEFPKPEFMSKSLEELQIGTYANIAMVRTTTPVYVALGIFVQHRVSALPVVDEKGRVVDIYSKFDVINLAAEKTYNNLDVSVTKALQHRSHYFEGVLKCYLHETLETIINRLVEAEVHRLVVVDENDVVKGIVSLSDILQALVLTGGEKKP

SMILES: N#Cc1c(O)c2c(-c3ccc(-c4ccccc4O)cc3)csc2[nH]c1=O [Compound 2]
frequency of F-cells (HbF+) ([1]; 21 days of differentiation): increase
time of peak AMPK phosphorylation (Thr172, pAMPK/total AMPK) [2]: around 1 hours

SMILES: O=C(O)c1c[nH]c2cc(Cl)c(-c3ccc(C4(O)CCC4)cc3)cc12 [Compound 1]
expression of differentiation markers CD71 and CD235a ([3]; after 14 days of differentiation): unchanged
enucleation of CD34+ cells ([3]; after 21 days of differentiation): no effect
hematocrit [4]: does not reduce
hemoglobin [4]: does not reduce
red blood cell counts (RBC) [4]: does not reduce
Nrf2-antioxidant response element signaling pathway (IPA of proteomics data) [5]: activated
HO-1 (HMOX1) protein regulation ([5]; vs DMSO): upregulated
SQSTM1 protein regulation ([5]; vs DMSO): upregulated
mRNA for human HbF (human γ-globin, HBG) increase [6]: not
fetal hemoglobin protein expression in bone marrow [7]: increase
F-cell (HbF+) frequency in enucleated GlyA+ cells [8]: increase
ROS in bone marrow [9]: decrease
fetal hemoglobin induction, F-cell (HbF+) frequency in enucleated GlyA+ cells ([1]; 14 days of differentiation): increases
increase of HbF+ cells compared to DMSO ([1]; 21 days of differentiation): about 2 fold
frequency of F-cells (HbF+) ([1]; 21 days of differentiation): increase
expression of proinflammatory M1 marker CD38 [10]: decreased
expression of proinflammatory M1 marker CD64 [10]: decreased
expression of proinflammatory M1 marker CD80 [10]: decreased
expression of proinflammatory M1 marker CD86 [10]: decreased

SMILES: NC(=O)NO [Hydroxyurea, hydroxyurea]
F-cell (HbF+) frequency in enucleated GlyA+ cells [8]: increase
fetal hemoglobin induction, F-cell (HbF+) frequency in enucleated GlyA+ cells ([1]; 14 days of differentiation): increases
fold change in fetal hemoglobin expression compared to control ([1]; 14 days of differentiation, vs Vehicle (DMSO)): 1,5 fold

time of peak AMPK phosphorylation (Thr172, pAMPK/total AMPK) [11]: around 3 hour
SMILES: COc1cccc(-n2c(=O)[nH]c3cc(Cl)n(-c4ccc(-c5cccc(OC)c5O)cc4)c3c2=O)c1 [Compound 4]
frequency of F-cells (HbF+) ([1]; 21 days of differentiation): increase
time of peak AMPK phosphorylation (Thr172, pAMPK/total AMPK) [2]: around 1 hours

time of peak AMPK phosphorylation (Thr172, pAMPK/total AMPK) [11]: around 3 hour
SMILES: OCCOc1cc(F)c(COc2nc3nc(O[C@@H]4CO[C@H]5[C@@H]4OC[C@H]5O)[nH]c3cc2Cl)c(F)c1 [Compound 3]
frequency of F-cells (HbF+) ([1]; 21 days of differentiation): increase
time of peak AMPK phosphorylation (Thr172, pAMPK/total AMPK) [2]: around 1 hours
